Results: patent publication US10588317B2, “Isoxazoline-substituted benzamides and analogues as insecticides” (priority 2015, dated 2020)
Like-named read-outs stand apart in the source and are kept apart here.

Assays:
Assay type in all cases: in vivo
Diabrotica balteata = Diabrotica balteata (corn root worm), sprayed maize sprouts; conditions: 96 h, read-out: effect in at least one of the two categories (mortality or growth inhibition); for percent effect (mortality or growth inhibition) at 200 ppm: application rate 200 ppm, L2 larvae, 4 days after infestation
How it was run: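 Read-out at 4 days post-infestation: mortality and growth inhibition relative to untreated samples. Test solutions (200 ppm, from DMSO stocks) were sprayed onto agar-held maize sprouts, which after drying received 6–10 L2 larvae per well.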

Euschistus heros = Euschistus heros (neotropical brown stink bug), sprayed soybean leaves; conditions: 120 h, read-out: effect in at least one of the two categories (mortality or growth inhibition); for percent effect (mortality or growth inhibition) at 200 ppm: application rate 200 ppm, N2 nymphs, 5 days after infestation
How it was run: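 Scored 5 days post-infestation versus untreated controls, for both mortality and growth inhibition: N2 nymphs placed on agar-mounted soybean leaves previously sprayed at 200 ppm with aqueous test solutions from DMSO stocks and left to dry.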

Myzus persicae = Myzus persicae (green peach aphid): feeding/contact activity; conditions: 144 h
Experimental: Sunflower leaf discs were placed onto agar in a 24-well microtiter plate and sprayed with aqueous test solutions prepared from 10'000 ppm DMSO stock solutions. After drying, the leaf discs were infested with an aphid population of mixed ages. The samples were assessed for mortality 6 days after infestation.

Plutella xylostella = Plutella xylostella (diamond back moth), artificial diet; conditions: 120 h, read-out: effect in at least one of the two categories (mortality or growth inhibition); for percent effect (mortality or growth inhibition) at 200 ppm: application rate 200 ppm, L2 larvae, 5 days after infestation
How it was run: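 L2 larvae (10-15 per well) fed on compound-treated, dried artificial diet; test solutions diluted in water from 10'000 ppm DMSO stocks. Readout 5 days post-infestation as mortality or growth inhibition versus untreated diet, with at least 80% effect at 200 ppm as threshold.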

Spodoptera littoralis = Spodoptera littoralis (Egyptian cotton leaf worm), sprayed cotton leaf discs; conditions: foliar, 72 h, read-out: control (mortality, anti-feeding effect, growth inhibition)
How it was run: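 Five first-instar larvae placed on dried cotton leaf discs (on agar) previously sprayed with aqueous dilutions of 10'000 ppm DMSO stocks. Scored at 3 days against untreated discs for mortality, feeding inhibition and growth inhibition; any category above untreated counts as control.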

Tetranychus urticae = Tetranychus urticae (two-spotted spider mite): feeding/contact activity; conditions: 192 h
Experimental: Bean leaf discs on agar in 24-well microtiter plates were sprayed with aqueous test solutions prepared from 10'000 ppm DMSO stock solutions. After drying the leaf discs were infested with a mite population of mixed ages. The samples were assessed for mortality on mixed population (mobile stages) 8 days after infestation.

Thrips tabaci = Thrips tabaci (onion thrips): feeding/contact activity; conditions: 144 h
Experimental: Sunflower leaf discs were placed on agar in 24-well microtiter plates and sprayed with aqueous test solutions prepared from 10'000 ppm DMSO stock solutions. After drying the leaf discs were infested with a Thrips population of mixed ages. The samples were assessed for mortality 6 days after infestation.

[1] = application rate 200 ppm, aphid population of mixed ages, 6 days after infestation, read-out: mortality
[2] = application rate 200 ppm, L1 larvae, 3 days after infestation
[3] = application rate 200 ppm, mixed population (mobile stages), 8 days after infestation, read-out: mortality
[4] = application rate 200 ppm, Thrips population of mixed ages, 6 days after infestation, read-out: mortality

Cc1cc(C2=NO[C@](c3cc(Cl)c(F)c(Cl)c3)(C(F)(F)F)C2)ccc1C(=O)N[C@@H]1CON(S(=O)(=O)C(F)(F)F)C1 [Compound A223, 4-[(5R)-5-(3,5-dichloro-4-fluorophenyl)-5-(trifluoromethyl)-4H-1,2-oxazol-3-yl]-2-methyl-N-[(4S)-2-(trifluoromethylsulfonyl)-1,2-oxazolidin-4-yl]benzamide]
≥ 80%: percent effect (mortality or growth inhibition) at 200 ppm (Diabrotica balteata) | percent effect (mortality or growth inhibition) at 200 ppm (Euschistus heros) | mortality at 200 ppm (Myzus persicae; [1]) | percent effect (mortality or growth inhibition) at 200 ppm (Plutella xylostella) | mortality at 200 ppm (Spodoptera littoralis; [2]) | mortality at 200 ppm (Tetranychus urticae; [3]) | mortality at 200 ppm (Thrips tabaci; [4])

Cc1cc(C2=NO[C@@](c3cc(Cl)c(F)c(Cl)c3)(C(F)(F)F)C2)ccc1C(=O)N[C@@H]1CON(S(=O)(=O)CC(=O)O)C1 [Compound A200]
≥ 80%: percent effect (mortality or growth inhibition) at 200 ppm (Diabrotica balteata) | percent effect (mortality or growth inhibition) at 200 ppm (Euschistus heros) | mortality at 200 ppm (Myzus persicae; [1]) | percent effect (mortality or growth inhibition) at 200 ppm (Plutella xylostella) | mortality at 200 ppm (Spodoptera littoralis; [2]) | mortality at 200 ppm (Tetranychus urticae; [3]) | mortality at 200 ppm (Thrips tabaci; [4])

COCN(C)S(=O)(=O)N1CC(NC(=O)c2ccc(C3=NO[C@@](c4cc(Cl)c(Cl)c(Cl)c4)(C(F)(F)F)C3)cc2C)CO1 (some centres unmarked) [Compound A96]
≥ 80%: percent effect (mortality or growth inhibition) at 200 ppm (Diabrotica balteata) | percent effect (mortality or growth inhibition) at 200 ppm (Euschistus heros) | mortality at 200 ppm (Myzus persicae; [1]) | percent effect (mortality or growth inhibition) at 200 ppm (Plutella xylostella) | mortality at 200 ppm (Spodoptera littoralis; [2]) | mortality at 200 ppm (Tetranychus urticae; [3]) | mortality at 200 ppm (Thrips tabaci; [4])

Cc1cc(C2=NO[C@@](c3cc(Cl)cc(Cl)c3)(C(F)(F)F)C2)ccc1C(=O)N[C@@H]1CON(S(=O)(=O)C2CC2)C1 [Compound A230]
≥ 80%: percent effect (mortality or growth inhibition) at 200 ppm (Diabrotica balteata) | percent effect (mortality or growth inhibition) at 200 ppm (Euschistus heros) | mortality at 200 ppm (Myzus persicae; [1]) | percent effect (mortality or growth inhibition) at 200 ppm (Plutella xylostella) | mortality at 200 ppm (Spodoptera littoralis; [2]) | mortality at 200 ppm (Tetranychus urticae; [3]) | mortality at 200 ppm (Thrips tabaci; [4])

Cc1cc(C2=NO[C@](c3cc(Cl)cc(C(F)(F)F)c3)(C(F)(F)F)C2)ccc1C(=O)N[C@H]1CON(S(=O)(=O)CCl)C1 [Compound A217]
≥ 80%: percent effect (mortality or growth inhibition) at 200 ppm (Diabrotica balteata) | percent effect (mortality or growth inhibition) at 200 ppm (Euschistus heros) | mortality at 200 ppm (Myzus persicae; [1]) | percent effect (mortality or growth inhibition) at 200 ppm (Plutella xylostella) | mortality at 200 ppm (Spodoptera littoralis; [2]) | mortality at 200 ppm (Tetranychus urticae; [3]) | mortality at 200 ppm (Thrips tabaci; [4])

COCCS(=O)(=O)N1CC(NC(=O)c2ccc(C3=NO[C@@](c4cc(Cl)c(F)c(Cl)c4)(C(F)(F)F)C3)cc2C)CO1 (some centres unmarked) [Compound A18]
≥ 80%: percent effect (mortality or growth inhibition) at 200 ppm (Diabrotica balteata) | percent effect (mortality or growth inhibition) at 200 ppm (Euschistus heros) | mortality at 200 ppm (Myzus persicae; [1]) | percent effect (mortality or growth inhibition) at 200 ppm (Plutella xylostella) | mortality at 200 ppm (Spodoptera littoralis; [2]) | mortality at 200 ppm (Tetranychus urticae; [3]) | mortality at 200 ppm (Thrips tabaci; [4])

Cc1cc(C2=NO[C@](c3cc(Cl)cc(Cl)c3)(C(F)(F)F)C2)ccc1C(=O)N[C@@H]1CON(S(=O)(=O)C(F)F)C1 [Compound A232, 4-[(5R)-5-(3,5-dichlorophenyl)-5-(trifluoromethyl)-4H-1,2-oxazol-3-yl]-N-[(4S)-2-(difluoromethylsulfonyl)-1,2-oxazolidin-4-yl]-2-methylbenzamide]
≥ 80%: percent effect (mortality or growth inhibition) at 200 ppm (Diabrotica balteata) | percent effect (mortality or growth inhibition) at 200 ppm (Euschistus heros) | mortality at 200 ppm (Myzus persicae; [1]) | percent effect (mortality or growth inhibition) at 200 ppm (Plutella xylostella) | mortality at 200 ppm (Spodoptera littoralis; [2]) | mortality at 200 ppm (Tetranychus urticae; [3]) | mortality at 200 ppm (Thrips tabaci; [4])

CCN(C(=O)OC(C)(C)C)S(=O)(=O)N1CC(NC(=O)c2ccc(C3=NO[C@@](c4cc(Cl)c(F)c(Cl)c4)(C(F)(F)F)C3)cc2C)CO1 (stereo partly drawn) [Compound A93, tert-butyl N-[4-[[4-[(5S)-5-(3,5-dichloro-4-fluoro-phenyl)-5-(trifluoromethyl)-4H-isoxazol-3-yl]-2-methyl-benzoyl]amino]isoxazolidin-2-yl]sulfonyl-N-ethyl-carbamate]
≥ 80%: percent effect (mortality or growth inhibition) at 200 ppm (Diabrotica balteata) | percent effect (mortality or growth inhibition) at 200 ppm (Euschistus heros) | mortality at 200 ppm (Myzus persicae; [1]) | percent effect (mortality or growth inhibition) at 200 ppm (Plutella xylostella) | mortality at 200 ppm (Spodoptera littoralis; [2]) | mortality at 200 ppm (Tetranychus urticae; [3]) | mortality at 200 ppm (Thrips tabaci; [4])

Cc1cc(C2=NO[C@@](c3cc(Cl)c(Cl)c(Cl)c3)(C(F)(F)F)C2)ccc1C(=O)NC1CON(S(=O)(=O)F)C1 (stereo partly drawn) [Compound A106, 4-[[2-methyl-4-[(5S)-5-(3,4,5-trichlorophenyl)-5-(trifluoromethyl)-4H-isoxazol-3-yl]benzoyl]amino]isoxazolidine-2-sulfonyl fluoride]
≥ 80%: percent control (mortality or growth inhibition) at 200 ppm (Diabrotica balteata) | percent control (mortality or growth inhibition) at 200 ppm (Euschistus heros) | mortality at 200 ppm (Myzus persicae) | percent control (mortality or growth inhibition) at 200 ppm (Plutella xylostella) | mortality at 200 ppm (Spodoptera littoralis) | mortality at 200 ppm (Tetranychus urticae) | mortality at 200 ppm (Thrips tabaci)

Cc1cc(C2=NO[C@@](c3cc(Cl)c(F)c(Cl)c3)(C(F)(F)F)C2)ccc1C(=O)NC1CON(S(=O)(=O)N(C)C(=O)N(C)C)C1 (some centres unmarked) [Compound A74]
≥ 80%: percent effect (mortality or growth inhibition) at 200 ppm (Diabrotica balteata) | percent effect (mortality or growth inhibition) at 200 ppm (Euschistus heros) | mortality at 200 ppm (Myzus persicae; [1]) | percent effect (mortality or growth inhibition) at 200 ppm (Plutella xylostella) | mortality at 200 ppm (Spodoptera littoralis; [2]) | mortality at 200 ppm (Tetranychus urticae; [3]) | mortality at 200 ppm (Thrips tabaci; [4])

CCCN(C)S(=O)(=O)N1CC(NC(=O)c2ccc(C3=NO[C@@](c4cc(Cl)c(Cl)c(Cl)c4)(C(F)(F)F)C3)cc2C)CO1 (stereo partly drawn) [Compound A84, 2-methyl-N-[2-[methyl(propyl)sulfamoyl]isoxazolidin-4-yl]-4-[(5S)-5-(3,4,5-trichlorophenyl)-5-(trifluoromethyl)-4H-isoxazol-3-yl]benzamide]
≥ 80%: percent effect (mortality or growth inhibition) at 200 ppm (Diabrotica balteata) | percent effect (mortality or growth inhibition) at 200 ppm (Euschistus heros) | mortality at 200 ppm (Myzus persicae; [1]) | percent effect (mortality or growth inhibition) at 200 ppm (Plutella xylostella) | mortality at 200 ppm (Spodoptera littoralis; [2]) | mortality at 200 ppm (Tetranychus urticae; [3]) | mortality at 200 ppm (Thrips tabaci; [4])
